From patent US20230322761A1, “DEGRADATION OF BRUTON'S TYROSINE KINASE (BTK) BY CONJUGATION OF BTK INHIBITORS WITH E3 LIGASE LIGAND AND METHODS OF USE” (BEIGENE, LTD., priority 2020, published 2023)

molecular target: T1, BTK (Homo sapiens, UniProt Q06187); assay: BTK degradation in TMD-8 cells, HTRF assay after 6 h treatment; assay type: cell-based; conditions: IC50 (DC50) of BTK degradation
T1 construct: endogenous in cells; host or cells: TMD-8 cells
How it was run: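 TMD-8 cells treated for 6 h with 8 compound doses in 6-fold dilution steps from a 1 mM 500× DMSO stock (0.2% DMSO), then lysed 30 min at room temperature. BTK in lysate detected by HTRF (665/620 nm) after overnight antibody incubation; DC50 from four-parameter curve fit.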

T1 sequence (Q06187 whole entry): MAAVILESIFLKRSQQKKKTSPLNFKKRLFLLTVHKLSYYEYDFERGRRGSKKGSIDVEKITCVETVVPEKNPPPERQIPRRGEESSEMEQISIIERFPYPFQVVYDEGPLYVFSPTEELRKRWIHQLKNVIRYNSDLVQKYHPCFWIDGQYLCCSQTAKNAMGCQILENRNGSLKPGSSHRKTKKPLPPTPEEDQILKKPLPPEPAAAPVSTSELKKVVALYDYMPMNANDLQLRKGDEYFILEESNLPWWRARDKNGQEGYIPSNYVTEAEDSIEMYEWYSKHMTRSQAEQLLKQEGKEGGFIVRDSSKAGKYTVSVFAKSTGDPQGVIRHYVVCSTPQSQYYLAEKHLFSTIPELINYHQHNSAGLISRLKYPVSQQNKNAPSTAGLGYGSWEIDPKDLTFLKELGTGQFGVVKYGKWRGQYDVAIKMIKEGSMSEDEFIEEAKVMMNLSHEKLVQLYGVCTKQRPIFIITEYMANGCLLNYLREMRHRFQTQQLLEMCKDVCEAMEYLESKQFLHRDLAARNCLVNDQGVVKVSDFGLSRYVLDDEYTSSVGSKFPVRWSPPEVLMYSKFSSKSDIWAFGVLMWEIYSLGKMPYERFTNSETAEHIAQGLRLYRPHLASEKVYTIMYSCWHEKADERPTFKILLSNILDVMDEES

DC50 [nM] | SMILES
5.82 | COc1cc(-c2cnc3[nH]nc(-c4ccc([C@@H](C)NC(=O)c5noc(C(C)(C)C)n5)c(C)c4)c3c2)ccc1N1CCN(CC2CCN(c3ccc(N4CCC(=O)NC4=O)cc3)CC2)CC1 [Example 120, (R)-5-(tert-butyl)-N-(1-(4-(5-(4-(4-((1-(4-(2,4-dioxotetrahydropyrimidin-1(2H)-yl)phenyl)piperidin-4-yl)methyl)piperazin-1-yl)-3-methoxyphenyl)-1H-pyrazolo[3,4-b]pyridin-3-yl)-2-methylphenyl)ethyl)-1,2,4-oxadiazole-3-carboxamide]
2.39 | CC(C)(C)c1nc(C(=O)NCc2ccc(-c3n[nH]c4ncc(-c5ccc(N6CCN(CC7CCN(c8ccc(N9CCC(=O)NC9=O)cc8)CC7)CC6)cc5)cc34)cc2CO)no1 [Example 121, 5-(tert-butyl)-N-(4-(5-(4-(4-((1-(4-(2,4-dioxotetrahydropyrimidin-1(2H)-yl)phenyl)piperidin-4-yl)methyl)piperazin-1-yl)phenyl)-1H-pyrazolo[3,4-b]pyridin-3-yl)-2-(hydroxymethyl)benzyl)-1,2,4-oxadiazole-3-carboxamide]
2.22 | Cc1cc(-c2n[nH]c3ncc(-c4ccc(N5CCN(CCc6ccc(N7CCC(=O)NC7=O)cc6)CC5)cn4)cc23)ccc1[C@@H](C)NC(=O)c1noc(C(C)(C)C)n1 [Example 122, (R)-5-(tert-butyl)-N-(1-(4-(5-(5-(4-(4-(2,4-dioxotetrahydropyrimidin-1(2H)-yl)phenethyl)piperazin-1-yl)pyridin-2-yl)-1H-pyrazolo[3,4-b]pyridin-3-yl)-2-methylphenyl)ethyl)-1,2,4-oxadiazole-3-carboxamide]
14.2 | Cc1cc(-c2n[nH]c3ncc(-c4ccc(N5CCN(CCc6ccc(OC7CCC(=O)NC7=O)cc6)CC5)cc4)cc23)ccc1[C@@H](C)NC(=O)c1noc(C(C)(C)C)n1 (stereo partly drawn) [Example 123, 5-(tert-butyl)-N-((1R)-1-(4-(5-(4-(4-(4-((2,6-dioxopiperidin-3-yl)oxy)phenethyl)piperazin-1-yl)phenyl)-1H-pyrazolo[3,4-b]pyridin-3-yl)-2-methylphenyl)ethyl)-1,2,4-oxadiazole-3-carboxamide]
1.42 | Cc1cc(-c2n[nH]c3ncc(-c4ccc(N5CCN(CC6CCN(c7ccc(N8CCC(=O)NC8=O)cn7)CC6)CC5)cc4)cc23)ccc1[C@@H](C)NC(=O)c1noc(C(C)(C)C)n1 [Example 124, (R)-5-(tert-butyl)-N-(1-(4-(5-(4-(4-((1-(5-(2,4-dioxotetrahydropyrimidin-1(2H)-yl)pyridin-2-yl)piperidin-4-yl)methyl)piperazin-1-yl)phenyl)-1H-pyrazolo[3,4-b]pyridin-3-yl)-2-methylphenyl)ethyl)-1,2,4-oxadiazole-3-carboxamide]
15.2 | Cc1cc(-c2n[nH]c3ncc(-c4ccc(N5CCN(CCc6ccc(C7CCC(=O)NC7=O)cc6)CC5)cc4)cc23)ccc1[C@@H](C)NC(=O)c1cn(C(C)(C)C)nn1 (stereo partly drawn) [Example 125, 1-(tert-butyl)-N-((1R)-1-(4-(5-(4-(4-(4-(2,6-dioxopiperidin-3-yl)phenethyl)piperazin-1-yl)phenyl)-1H-pyrazolo[3,4-b]pyridin-3-yl)-2-methylphenyl)ethyl)-1H-1,2,3-triazole-4-carboxamide]
6.79 | Cc1cc(-c2n[nH]c3ncc(-c4ccc(N5CC6CC5CN6CC5CCN(c6ccc(N7CCC(=O)NC7=O)cc6)CC5)cn4)cc23)ccc1[C@@H](C)NC(=O)c1noc(C(C)(C)C)n1 (stereo partly drawn) [Example 127, 5-(tert-butyl)-N-((1R)-1-(4-(5-(5-(5-((1-(4-(2,4-dioxotetrahydropyrimidin-1(2H)-yl)phenyl)piperidin-4-yl)methyl)-2,5-diazabicyclo[2.2.1]heptan-2-yl)pyridin-2-yl)-1H-pyrazolo[3,4-b]pyridin-3-yl)-2-methylphenyl)ethyl)-1,2,4-oxadiazole-3-carboxamide]
5.84 | Cc1cc(-c2n[nH]c3ncc(-c4ccc(CCN5CCN(c6ccc(N7CCC(=O)NC7=O)cc6)CC5)cc4)cc23)ccc1[C@@H](C)NC(=O)c1noc(C(C)(C)C)n1 [Example 128, (R)-5-(tert-butyl)-N-(1-(4-(5-(4-(2-(4-(4-(2,4-dioxotetrahydropyrimidin-1(2H)-yl)phenyl)piperazin-1-yl)ethyl)phenyl)-1H-pyrazolo[3,4-b]pyridin-3-yl)-2-methylphenyl)ethyl)-1,2,4-oxadiazole-3-carboxamide]
3.73 | Cc1cc(-c2n[nH]c3ncc(-c4ccc(N5CCN(CCc6ccc(N7CCC(=O)NC7=O)cc6)CC5)cc4)cc23)ccc1[C@@H](C)NC(=O)c1noc(C(C)(C)C)n1 [Example 129, (R)-5-(tert-butyl)-N-(1-(4-(5-(4-(4-(4-(2,4-dioxotetrahydropyrimidin-1(2H)-yl)phenethyl)piperazin-1-yl)phenyl)-1H-pyrazolo[3,4-b]pyridin-3-yl)-2-methylphenyl)ethyl)-1,2,4-oxadiazole-3-carboxamide]
5.28 | COc1cc(OCCCN2CCN(c3ccc(-c4cnc5[nH]nc(-c6ccc([C@@H](C)NC(=O)c7noc(C(C)(C)C)n7)c(C)c6)c5c4)cc3)CC2)ccc1NC1CCC(=O)NC1=O (stereo partly drawn) [Example 130, 5-(tert-butyl)-N-((1R)-1-(4-(5-(4-(4-(3-(4-((2,6-dioxopiperidin-3-yl)amino)-3-methoxyphenoxy)propyl)piperazin-1-yl)phenyl)-1H-pyrazolo[3,4-b]pyridin-3-yl)-2-methylphenyl)ethyl)-1,2,4-oxadiazole-3-carboxamide]
5.9 | Cc1cc(-c2n[nH]c3ncc(-c4ccc(N5CCN(CCc6ccc(NC7CCC(=O)NC7=O)cc6)CC5)cc4)cc23)ccc1[C@@H](C)NC(=O)c1noc(C(C)(C)C)n1 (stereo partly drawn) [Example 131, 5-(tert-butyl)-N-((1R)-1-(4-(5-(4-(4-(4-((2,6-dioxopiperidin-3-yl)amino)phenethyl)piperazin-1-yl)phenyl)-1H-pyrazolo[3,4-b]pyridin-3-yl)-2-methylphenyl)ethyl)-1,2,4-oxadiazole-3-carboxamide]
> 2000 | Cc1cc(-c2n[nH]c3ncc(-c4ccc(N5CC6CC5CN6CCc5ccc(N6CCC(=O)NC6=O)cc5)cn4)cc23)ccc1[C@@H](C)NC(=O)c1noc(C(C)(C)C)n1 (stereo partly drawn) [Example 132, 5-(tert-butyl)-N-((1R)-1-(4-(5-(5-(5-(4-(2,4-dioxotetrahydropyrimidin-1(2H)-yl)phenethyl)-2,5-diazabicyclo[2.2.1]heptan-2-yl)pyridin-2-yl)-1H-pyrazolo[3,4-b]pyridin-3-yl)-2-methylphenyl)ethyl)-1,2,4-oxadiazole-3-carboxamide]
1.96 | Cc1cc(-c2n[nH]c3ncc(-c4ccc(N5CC6CC5CN6CCc5ccc(C6CCC(=O)NC6=O)cc5)cn4)cc23)ccc1[C@@H](C)NC(=O)c1noc(C(C)(C)C)n1 (stereo partly drawn) [Example 133, 5-(tert-butyl)-N-((1R)-1-(4-(5-(5-(5-(4-(2,6-dioxopiperidin-3-yl)phenethyl)-2,5-diazabicyclo[2.2.1]heptan-2-yl)pyridin-2-yl)-1H-pyrazolo[3,4-b]pyridin-3-yl)-2-methylphenyl)ethyl)-1,2,4-oxadiazole-3-carboxamide]
9.96 | Cc1cc(-c2n[nH]c3ncc(-c4ccc(N5CCN(CC6CCN(c7ccc(N8CCC(=O)NC8=O)cc7F)CC6)CC5)cc4)cc23)ccc1[C@@H](C)NC(=O)c1noc(C(C)(C)C)n1 [Example 134, (R)-5-(tert-butyl)-N-(1-(4-(5-(4-(4-((1-(4-(2,4-dioxotetrahydropyrimidin-1(2H)-yl)-2-fluorophenyl)piperidin-4-yl)methyl)piperazin-1-yl)phenyl)-1H-pyrazolo[3,4-b]pyridin-3-yl)-2-methylphenyl)ethyl)-1,2,4-oxadiazole-3-carboxamide]
12.7 | Cc1cc(-c2n[nH]c3ncc(-c4ccc(N5CCN(CC6CCN(c7ccc(N8CCC(=O)NC8=O)cc7C)CC6)CC5)cc4)cc23)ccc1[C@@H](C)NC(=O)c1noc(C(C)(C)C)n1 [Example 135, (R)-5-(tert-butyl)-N-(1-(4-(5-(4-(4-((1-(4-(2,4-dioxotetrahydropyrimidin-1(2H)-yl)-2-methylphenyl)piperidin-4-yl)methyl)piperazin-1-yl)phenyl)-1H-pyrazolo[3,4-b]pyridin-3-yl)-2-methylphenyl)ethyl)-1,2,4-oxadiazole-3-carboxamide]
14.9 | Cc1cc(-c2n[nH]c3ncc(-c4ccc(N5CCN(CCC6CCN(c7ccc(C8CCC(=O)NC8=O)c(C)n7)CC6)CC5)cc4)cc23)ccc1[C@@H](C)NC(=O)c1noc(C(C)(C)C)n1 (stereo partly drawn) [Example 136, 5-(tert-butyl)-N-((1R)-1-(4-(5-(4-(4-(2-(1-(5-(2,6-dioxopiperidin-3-yl)-6-methylpyridin-2-yl)piperidin-4-yl)ethyl)piperazin-1-yl)phenyl)-1H-pyrazolo[3,4-b]pyridin-3-yl)-2-methylphenyl)ethyl)-1,2,4-oxadiazole-3-carboxamide]
5.23 | COc1cc(CCN2CCN(c3ccc(-c4cnc5[nH]nc(-c6ccc([C@@H](C)NC(=O)c7noc(C(C)(C)C)n7)c(C)c6)c5c4)cc3)CC2)ccc1C1CCC(=O)NC1=O (stereo partly drawn) [Example 137, 5-(tert-butyl)-N-((1R)-1-(4-(5-(4-(4-(4-(2,6-dioxopiperidin-3-yl)-3-methoxyphenethyl)piperazin-1-yl)phenyl)-1H-pyrazolo[3,4-b]pyridin-3-yl)-2-methylphenyl)ethyl)-1,2,4-oxadiazole-3-carboxamide]
8.6 | Cc1cc(-c2n[nH]c3ncc(-c4ccc(N5CCN(CC6CCN(c7cccc(N8CCC(=O)NC8=O)c7)CC6)CC5)cc4)cc23)ccc1[C@@H](C)NC(=O)c1noc(C(C)(C)C)n1 [Example 138, (R)-5-(tert-butyl)-N-(1-(4-(5-(4-(4-((1-(3-(2,4-dioxotetrahydropyrimidin-1(2H)-yl)phenyl)piperidin-4-yl)methyl)piperazin-1-yl)phenyl)-1H-pyrazolo[3,4-b]pyridin-3-yl)-2-methylphenyl)ethyl)-1,2,4-oxadiazole-3-carboxamide]
